Results published in publication PMC3676791, “Synthesis, Cytotoxicity, DNA Binding and Apoptosis of Rhein-Phosphonate Derivatives as Antitumor Agents” (International Journal of Molecular Sciences, 2013).
Where two headings read alike, the source gives them in different places.

Experiments:
[1] = test system: HepG-2 cells; experiment: MTT cytotoxicity assay, HepG-2; assay type: cell-based, human; settings: 72 h, mean ± SD, three independent experiments
Text: (§1) The following in vitro human cancer cell lines were used: HepG 2 ([…]), Hela (Henrietta Lacks strain of cancer cells), Hct-116 (human colorectal cells), CNE (human nasopharyngeal carcinoma cells), Spca-2 (human lung adenocarcinoma cell line), HUVEC (human umbilical vein endothelial cells). The cell lines (HepG 2, Hela, Hct-116, CNE, Spca-2, HUVEC) were purchased from the Cell Resource Center of Shanghai Institutes for Biological Sciences, The Academy of Sciences of China.
(§2) HepG-2, Hela, Hct-116, CNE, HUVEC cells were cultured in Dulbecco Modified Eagle Medium (DMEM) (Thermo), containing 4.0 mM L-Glutamine and 4,500 mg/L Glucose, supplemented with 10% (v/v) fetal bovine serum (FBS; HyClone, Logan, UT, USA). Spca-2 cells were cultured in RPMI-1640 medium, containing 2.05 mM L-Glutamine without Calcium nitrate, supplemented with 10% (v/v) fetal bovine serum (FBS; HyClone). The cell culture media was supplemented with penicillin/streptomycin at 100 Units/mL as adherent monolayers. Cell cultures were kept in a humidified incubator with 5% CO2 at 37 °C. Stock solutions were prepared in dimethyl sulfoxide (DMSO) and further dilutions were made with fresh culture medium. The concentration of DMSO in the final culture medium was 1%, which had no effect on the cell viability.
(§3) Chemosensitivity was assessed using 3-(4,5-dimethylthiazol-2-yl)-2,5-diphenyl tetrazolium bromide (MTT) assay. Briefly, exponentially growing HepG-2 (2,000–3,000 cells/well), Hela (2,000–3,000 cells/well), Hct-116 (3,000–4,000 cells/well), CNE (2,000–3,000 cells/well), HUVEC (2,000–3,000 cells/well) and Spca-2 […], and then […] of MTT (10 mg/mL) was added. After incubation for 4 h at 37 °C, the purple formazan crystals (i.e., a reduced form of MTT) generated from viable cells were dissolved by adding 100 μL DMSO in each well. The plates were swirled gently for 10 min to dissolve the precipitate, and quantified by measuring the optical density (OD) of the plates at a wavelength of 490 nm on plate reader (TECAN infinite M1000). Each concentration was repeated in three wells and the same experimental conditions were provided for all compounds and MTT analysis was repeated three times for each cell line.

[2] = test system: CNE cells; experiment: MTT cytotoxicity assay, CNE; assay type: cell-based, human; settings: 72 h, mean ± SD, three independent experiments
Text: as §1, §2, §3

[3] = test system: Spca-2 cells; experiment: MTT cytotoxicity assay, Spca-2; assay type: cell-based, human; settings: 72 h; mean ± SD, three independent experiments
Text: as §1, §2
as §3, with “Each concentration was repeated in three wells and the same experimental conditions were provided for all compounds and MTT analysis was repeated three times for each cell line.” left out

[4] = test system: Hela cells; experiment: MTT cytotoxicity assay, Hela; assay type: cell-based, human; settings: 72 h, mean ± SD, three independent experiments
Text: as §1, §2, §3

[5] = test system: Hct-116 cells; experiment: MTT cytotoxicity assay, Hct-116; assay type: cell-based, human; settings: 72 h; mean ± SD, three independent experiments
Text: as §1, §2
as §3, with “Each concentration was repeated in three wells and the same experimental conditions were provided for all compounds and MTT analysis was repeated three times for each cell line.” left out

[6] = test system: HUVEC cells; experiment: MTT cytotoxicity assay, HUVEC normal cells; assay type: cell-based, human; settings: normal cell line, 72 h, mean ± SD, three independent experiments
Text: as §1, §2, §3

[7] = test system: ct-DNA; experiment: GelRed-ct-DNA competitive fluorescence quenching (Stern-Volmer); assay type: binding, calf; design: unit not given here; settings: [GelRed]/[DNA] = 1:10, excitation 350 nm, emission 590 nm
Text: The binding ability of these complexes to ct-DNA was primarily investigated by competitive binding in which they served as an intercalative binding probe in competition with GelRed. GelRed, which is environmentally safe and ultra-sensitive for DNA staining, is a newly developed DNA intercalator to replace the classic DNA intercalator EB. Furthermore, both GelRed and EB bound with ct-DNA emit characteristic fluorescence at 590 nm upon 350 nm UV light excitation.
In competitive binding experiments, GelRed and ct-DNA solutions were pre-incubated for 30 min to ensure sufficient interactions. The concentration ratio of GelRed to DNA was set at [GelRed]/[DNA] = 1:10 to ensure sufficient binding sites of DNA for GelRed. The emission spectra of the GelRed–ctDNA system in the absence and presence of 5b were shown in Figure 2 (for that of 5a and 5c, see Figures S3 and S4). […] The presence of 5b considerably quenched the fluorescence emission of GelRed with the saturation state achieved at the [5b]/[GelRed] ratio of 8:1.
where [DNA] is the DNA concentration in nucleotides, ɛa is the molar extinction coefficient of the compound bound with DNA, ɛf is the extinction coefficient of the free compound, and ɛb is the extinction coefficient of the compound fully bound to DNA. ɛa, ɛf and ɛb are all calculated from the Lambert-Beer’s law (ɛ = A/[compound]). To determine ɛb, it is assumed that the compounds are fully bound with DNA at the point where no further hypochromicity is observed under the addition of ct-DNA, and the apparent absorbance Ab is regarded as the absorbance of only the bound compounds. Ct is the constant concentration of the compounds, and s is the number of binding sites in base pairs. A solution containing 2 × 10^−4 M DNA and 2 × 10^−5 M GelRed ([DNA]/[GelRed] = 10:1) was prepared for GelRed-DNA competitive binding studies. Fluorescence emission spectra were recorded under slit width as 10 nm/10 nm for Ex/Em, respectively. The quenching constant for comparing the efficiency of fluorescence quenching, i.e., Kq, of each compound was obtained by the linear fit of plotting I0/I versus [Q], according to the classic Stern-Volmer equation: I0/I = 1 + Kq × [Q] […] In the fluorescence polarization experiment, each sample was pre-incubated for 40 min before the fluorescence polarization was recorded under the condition of 595 nm emitting wavelength with 350 nm exciting wavelength, and slit width was set as 5 nm/5 nm for Ex/Em, respectively. CD absorption spectra of DNA were measured in TBS at a 100 nm/min scan rate in the wavelength range from 200 to 400 nm, with 1 × 10^−4 M DNA in the absence and presence of each compound of 2 × 10^−5 M, respectively. […]

[8] = test system: Hct-116 cells; settings: cited from earlier work
[9] = test system: ct-DNA; experiment: Circular dichroism spectra of ct-DNA; assay type: binding, calf; settings: [5b]/[DNA] ratio 1:10
Text: The circular dichroism (CD) is a useful technique to assess whether the nucleic acids undergo conformational changes as a result of complex formation or changes in environmental conditions. […] This was consistent with the characteristic B conformation of DNA [56].
The decrease in the intensities of both positive and negative bands can usually be observed in the intercalative binding of small molecules to DNA [57].
where [DNA] is the DNA concentration in nucleotides, ɛa is the molar extinction coefficient of the compound bound with DNA, ɛf is the extinction coefficient of the free compound, and ɛb is the extinction coefficient of the compound fully bound to DNA. ɛa, ɛf and ɛb are all calculated from the Lambert-Beer’s law (ɛ = A/[compound]). To determine ɛb, it is assumed that the compounds are fully bound with DNA at the point where no further hypochromicity is observed under the addition of ct-DNA, and the apparent absorbance Ab is regarded as the absorbance of only the bound compounds. […] Fluorescence emission spectra were recorded under slit width as 10 nm/10 nm for Ex/Em, respectively. The quenching constant for comparing the efficiency of fluorescence quenching, i.e., Kq, of each compound was obtained by the linear fit of plotting I0/I versus [Q], according to the classic Stern-Volmer equation: I0/I = 1 + Kq × [Q] […]

[10] = test system: HepG-2 cells; experiment: Annexin V-FITC/PI apoptosis flow cytometry, HepG-2; assay type: cell-based, human; settings: 24 h
Text: Many anthraquinones such as rhein and emodim induce apoptosis. Flow cytometry was used to investigate analog-induced apoptosis and cell death. The compounds (5a–c) with cytotoxic effects were investigated for the effects on the apoptosis of HepG-2 cells. To clarify the mechanism of rhein derivative-induced cell death, we determined both early and late apoptosis using annexin V-FITC and PI (Propidium iodide) labeling of live cells. Annexin V binds to phosphatidylserine, which is exposed on the cell membrane and is one of the earliest indicators of cellular apoptosis. PI is used as a DNA stain for both flow cytometry to evaluate cell viability or DNA content in cell cycle analysis and microscopy to visualize the nucleus and other DNA containing organelles. It can be used to differentiate necrotic, apoptotic and normal cells. In the present study, the apoptotic cell rates were determined for the HepG-2 cells after stimulation for 24 h by the compounds at different concentrations. […] Compounds 5a and 5b induced apoptosis in 84.4% and 70.4% of the HepG-2 cells. Compounds 5a and 5b are of special interest as these compounds seem to drive HepG-2 cells directly into early apoptosis. Meanwhile, we also investigated for the effects on the apoptosis of HUVEC cells.
Apoptosis was discriminated with the annexin V-FITC/propidium iodide test. […]

[11] = test system: HepG-2 cells; experiment: Cell cycle analysis by PI flow cytometry, HepG-2; assay type: cell-based, human; settings: 48 h, untreated 4.27%
Text: The cell cycle is the series of events that take place in a cell leading to its division and duplication (replication). The cell cycle consists of four distinct phases: G1 phase, S phase (synthesis), G2 phase (collectively known as interphase) and M phase (mitosis). The G1 stage is the stage when preparation of energy and material for DNA replication occurs. The S stage is the stage when DNA replication occurs. The G2 stage is the stage when preparation for the M stage occurs. The M stage is “mitosis,” and is when nuclear and cytoplasmic division occurs.
The cell lines were treated with indicated concentrations of compounds. After being incubated for 48 h, cells were washed twice with ice-cold PBS, fixed and permeabilized with ice-cold 70% ethanol at −20 °C overnight. The cells were treated with 100 μg/mL RNase A at 37 °C for 30 min after washed with ice-cold PBS, and finally stained with 1 mg/mL propidium iodide (PI) in the dark at 4 °C for 30 min. Analysis was performed with the system software (CellQuest; BD Biosciences).

Row | Molecule | IC50 [1] | IC50 [2] | IC50 [3] | IC50 [4] | IC50 [5] | IC50 [6] | quenching constant Kq (Stern-Volmer) [7] | IC50 ([1]; Homo sapiens, HepG2) | IC50 ([2]; Homo sapiens, CNE) | IC50 ([4]; Homo sapiens, HeLa) | IC50 [8] | percentage decrease in maximal DNA negative CD absorption ([9]; negative band at 245 nm) | percentage decrease in maximal DNA positive CD absorption ([9]; positive band at 280 nm) | apoptosis induced, % of HepG-2 cells [10] | G2-phase population ([11]; HepG-2, 10 μM) | G2-phase population ([11]; HepG-2, 20 μM) | G2-phase population ([11]; HepG-2, 30 μM) | G2-phase population ([11]; HepG-2, 40 μM) | IC50 ([6]; Homo sapiens, HUVEC)
1 | O,O′-Diethyl {[2-(4,5-dihydroxy-9,10-dioxo-9,10-dihydroanthracene) acetamido] (phenyl) methyl} phosphonate [5c] | 18.2 ± 1.87 µM | 38.3 ± 8.23 µM | 25.1 ± 2.72 µM | > 50 µM | 23.4 ± 3.22 µM | > 100 µM | 0.753 × 10^3 | – | – | – | – | – | – | – | – | – | – | – | –
2 | O=c1[nH]cc(F)c(=O)[nH]1 [5-Fu, fluorouracil, reference compound] | – | – | – | – | – | – | – | 20.3 ± 2.43 µM | > 50 µM | > 50 µM | 4.3 ± 0.52 µM | – | – | – | – | – | – | – | –
3 | CCOP(=O)(OCC)C(C)(CCc1ccccc1)NC(=O)c1cc(O)c2c(c1)C(=O)c1cccc(O)c1C2=O (centres unmarked) [5b, O,O′-Diethyl{[2-(4,5-dihydroxy-9,10-dioxo-9,10-dihydroanthracene)acetamido] (Phenylethyl)ethyl} phosphonate] | 8.82 ± 0.95 µM | 27.3 ± 3.78 µM | 9.01 ± 0.87 µM | 45.4 µM | 12.7 ± 1.5 µM | > 100 µM | 3.2 × 10^3 | – | – | – | – | 32.2% | 9.78% | 70.4% | 8.52% | 14.56% | 18.23% | – | –
4 | CCOP(=O)(OCC)C(C)(NC(=O)c1cc(O)c2c(c1)C(=O)c1cccc(O)c1C2=O)c1ccc(C)cc1 (centres unmarked) [5a] | 15.1 ± 1.54 µM | 33.8 ± 2.17 µM | 16.9 ± 1.32 µM | > 50 µM | 30.6 ± 8.75 µM | > 100 µM | 2.02 × 10^3 | – | – | – | – | – | – | 84.4% | – | 7.23% | 11.08% | 18.05% | –
5 | O=C(O)c1cc(O)c2c(c1)C(=O)c1cccc(O)c1C2=O [Rhein] | – | – | – | – | – | – | 3.94 × 10^3 | – | – | > 50 µM | – | – | – | – | – | – | – | – | 79.7 ± 5.4 µM
